Measured values published in publication PMC5468247, “Development of a selective agonist for relaxin family peptide receptor 3” (Scientific Reports, 2017).

Key:
human RXFP3 [1] = molecular target: T1, human RXFP3 (Homo sapiens, UniProt Q9NSD7); test: Receptor binding assay, NanoLuc-conjugated R3/I5 tracer competition; details: for binding potency towards RXFP3, in words: compared with R3/I5
T1 construct: expressed in transfected cells; host or cells: HEK293T
T1 sequence (Q9NSD7 1-469): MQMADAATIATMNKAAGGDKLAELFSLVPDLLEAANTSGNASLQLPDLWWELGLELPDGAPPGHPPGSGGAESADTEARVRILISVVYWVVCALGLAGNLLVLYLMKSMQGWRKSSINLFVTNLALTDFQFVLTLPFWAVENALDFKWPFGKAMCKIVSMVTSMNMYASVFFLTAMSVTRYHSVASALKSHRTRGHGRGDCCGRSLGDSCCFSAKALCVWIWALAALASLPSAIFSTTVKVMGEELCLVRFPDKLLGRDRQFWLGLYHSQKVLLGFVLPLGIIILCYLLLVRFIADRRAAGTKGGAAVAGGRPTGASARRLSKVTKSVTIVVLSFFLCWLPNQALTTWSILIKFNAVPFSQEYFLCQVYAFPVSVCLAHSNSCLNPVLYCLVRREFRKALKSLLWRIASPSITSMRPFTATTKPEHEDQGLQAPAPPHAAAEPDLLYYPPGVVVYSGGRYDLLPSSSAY
Method: (§1) Specific binding data are expressed as means ± SE (n = 3) and fitted to sigmoidal curves using SigmaPlot 10.0 software.
(§2) Briefly, HEK293T cells were transiently transfected with an expression construct of human RXFP3 or human RXFP4. On the next day, transfected cells were trypsinised, seeded into 96-well plates, and continuously cultured for 24–36 h to ~100% confluence. […] After incubation at 21 °C for 2 h, binding solution was removed and cells were washed twice with ice-cold phosphate-buffered saline (200 μl/well for each wash). Thereafter, cells were lysed by lysis solution (100 μl/well, Promega, Madison, WI, USA) and cell lysates were transferred to a white opaque 96-well plate (50 μl/well). After mixing with freshly diluted substrate (50 μl/well), bioluminescence was immediately measured on a SpectraMax M5 plate reader (Molecular Devices, Sunnyvale, CA, USA) in luminescence mode. […] The calculated specific binding data were expressed as means ± standard error (SE; n = 3) and fitted to sigmoidal curves using SigmaPlot 10.0 software.

human RXFP4 [2] = molecular target: T2, human RXFP4 (Homo sapiens, UniProt Q8TDU9); test: as above; details: for fold lower binding potency towards RXFP4 compared with R3/I5: relative to R3/I5; for binding potency towards RXFP4, in words: compared with R3/I5
T2 construct: expressed in transfected cells; host or cells: HEK293T
Method: as §1, §2

human RXFP3 [3] = molecular target: T1, human RXFP3; test: Receptor activation assay, CRE-controlled NanoLuc reporter; type: cell-based; details: for activation potency towards RXFP3, in words / fold lower activation potency towards RXFP3 compared with R3/I5: CRE-NanoLuc reporter, human RXFP3; for activation potency towards RXFP3, in words: compared with R3/I5; for fold lower activation potency towards RXFP3 compared with R3/I5: relative to R3/I5
Excerpt: (§3) HEK293T cells transiently cotransfected with a CRE-controlled NanoLuc reporter vector and the expression construct of human RXFP3 or human RXFP4 were used for activation assays. The measured bioluminescence data are expressed as means ± SE (n = 3) and fitted to sigmoidal or linear curves using SigmaPlot 10.0.
(§4) Briefly, HEK293T cells were transiently cotransfected with the NanoLuc reporter vector pNL1.2/CRE and the expression construct of human RXFP3 or human RXFP4. On the next day, transfected cells were trypsinised, seeded into 96-well plates, and continuously cultured for 24–36 h to ~90% confluence. To initiate activation assays, medium was removed and activation solution (serum-free DMEM medium plus 1% bovine serum albumin) containing 1.0 μM of forskolin and various concentrations of peptide was added (100 μl/well). After continuous culturing at 37 °C for 4 h, activation solution was removed and cells were lysed with lysis solution (100 μl/well, Promega). Cell lysates were then transferred to a white opaque 96-well plate (50 μl/well), mixed with freshly diluted substrate (50 μl/well), and bioluminescence was immediately measured on a SpectraMax M5 plate reader (Molecular Devices) in luminescence mode. The measured data were expressed as means ± SE (n = 3) and fitted to sigmoidal or linear curves using SigmaPlot 10.0 software.

human RXFP4 [4] = molecular target: T2, human RXFP4; test: as above; type: cell-based; details: relative to R3/I5
Excerpt: as §3, §4

T2 sequence (Q8TDU9 whole entry): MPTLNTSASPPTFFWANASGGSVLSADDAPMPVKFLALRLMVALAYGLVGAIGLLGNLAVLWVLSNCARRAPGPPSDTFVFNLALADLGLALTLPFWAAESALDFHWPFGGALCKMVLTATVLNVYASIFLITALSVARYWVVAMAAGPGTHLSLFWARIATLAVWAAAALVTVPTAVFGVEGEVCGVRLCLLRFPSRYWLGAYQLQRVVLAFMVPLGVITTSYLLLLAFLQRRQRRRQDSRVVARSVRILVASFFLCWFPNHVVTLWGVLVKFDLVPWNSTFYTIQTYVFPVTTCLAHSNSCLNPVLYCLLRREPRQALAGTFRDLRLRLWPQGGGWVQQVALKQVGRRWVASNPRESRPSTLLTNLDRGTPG

## CC[C@H](C)[C@@H]1NC(=O)[C@H](Cc2ccccc2)NC(=O)[C@H](CCC(=O)O)NC(=O)[C@H](CCCNC(=N)N)NC(=O)CNC(=O)[C@@H](NC(=O)[C@H](CC(C)C)NC(=O)[C@H](CCCNC(=N)N)NC(=O)[C@@H](NC(=O)CNC(=O)[C@H](Cc2ccc(O)cc2)NC(=O)[C@@H]2CCCN2C(=O)[C@H](C)NC(=O)[C@H](C)NC(=O)[C@H](CCCNC(=N)N)NC(=O)[C@@H]2CCC(=O)N2)C(C)C)CSSC[C@@H]2NC(=O)[C@@H](NC(=O)[C@H](CC(C)C)NC(=O)[C@@H](NC(=O)[C@H](CCC(N)=O)NC(=O)[C@H](CC(C)C)NC(=O)[C@H](CC(=O)O)NC(=O)[C@H](CCC(N)=O)NC(=O)[C@H](CCCNC(=N)N)NC(=O)[C@H](CO)NC(=O)[C@H](CCCNC(=N)N)NC(=O)[C@H](CCCNC(=N)N)NC(=O)[C@H](CO)NC(=O)[C@@H](N)CCCNC(=N)N)[C@@H](C)O)CSSC[C@H](NC(=O)CNC(=O)[C@H](CC(=O)O)NC(=O)[C@H]([C@@H](C)O)NC2=O)C(=O)N[C@@H](CO)C(=O)N[C@@H](CCSC)C(=O)N[C@@H]([C@@H](C)O)C(=O)N[C@@H](CC(=O)O)C(=O)N[C@@H](CC(C)C)C(=O)N[C@@H](CO)C(=O)N[C@@H](C)C(=O)N[C@@H](CC(C)C)C(=O)N[C@H](C(=O)O)CSSC[C@@H](C(=O)NCC(=O)N[C@@H](CO)C(=O)N[C@@H](CO)C(=O)N[C@@H](CCCNC(=N)N)C(=O)N[C@@H](Cc2c[nH]c3ccccc23)C(=O)O)NC(=O)[C@H]([C@@H](C)O)NC(=O)[C@H](Cc2ccccc2)NC(=O)[C@H]([C@@H](C)CC)NC(=O)[C@H](C(C)C)NC(=O)[C@H](C)NC(=O)[C@H](CCCNC(=N)N)NC1=O [[G(B24)S]R3/I5]
Human RXFP3 [1]
  binding potency towards RXFP3, in words: retained full activation and binding potencies
Human RXFP4 [2]
  fold lower binding potency towards RXFP4 compared with R3/I5: 2 fold
Human RXFP3 [3]
  activation potency towards RXFP3, in words: retained full activation and binding potencies
Human RXFP3 [3]; selectivity RXFP3 over RXFP4, from activation assays
  fold higher activation potency towards RXFP3 than towards RXFP4: 20 fold
Human RXFP4 [4]
  fold lower activation potency towards RXFP4 compared with R3/I5: 20 fold

## CC[C@H](C)[C@@H]1NC(=O)[C@H](Cc2ccccc2)NC(=O)[C@H](CCC(=O)O)NC(=O)[C@H](CCCNC(=N)N)NC(=O)CNC(=O)[C@@H](NC(=O)[C@H](CC(C)C)NC(=O)[C@H](CCCNC(=N)N)NC(=O)[C@@H](NC(=O)CNC(=O)[C@H](Cc2ccc(O)cc2)NC(=O)[C@@H]2CCCN2C(=O)[C@H](C)NC(=O)[C@H](C)NC(=O)[C@H](CCCNC(=N)N)NC(=O)[C@@H]2CCC(=O)N2)C(C)C)CSSC[C@@H]2NC(=O)[C@@H](NC(=O)[C@H](CC(C)C)NC(=O)[C@@H](NC(=O)[C@H](CCC(N)=O)NC(=O)[C@H](CC(C)C)NC(=O)[C@H](CC(=O)O)NC(=O)[C@H](CCC(N)=O)NC(=O)[C@H](CCCNC(=N)N)NC(=O)[C@H](CO)NC(=O)[C@H](CCCNC(=N)N)NC(=O)[C@H](CCCNC(=N)N)NC(=O)[C@H](CO)NC(=O)[C@@H](N)CCCNC(=N)N)[C@@H](C)O)CSSC[C@H](NC(=O)CNC(=O)[C@H](CC(=O)O)NC(=O)[C@H]([C@@H](C)O)NC2=O)C(=O)N[C@@H](CO)C(=O)N[C@@H](CCSC)C(=O)N[C@@H]([C@@H](C)O)C(=O)N[C@@H](CC(=O)O)C(=O)N[C@@H](CC(C)C)C(=O)N[C@@H](CO)C(=O)N[C@@H](C)C(=O)N[C@@H](CC(C)C)C(=O)N[C@H](C(=O)O)CSSC[C@@H](C(=O)N[C@@H](CO)C(=O)N[C@@H](CCCNC(=N)N)C(=O)N[C@@H](Cc2c[nH]c3ccccc23)C(=O)O)NC(=O)[C@H]([C@@H](C)O)NC(=O)[C@H](Cc2ccccc2)NC(=O)[C@H]([C@@H](C)CC)NC(=O)[C@H](C(C)C)NC(=O)[C@H](C)NC(=O)[C@H](CCCNC(=N)N)NC1=O [[∆B23-24]R3/I5]
Human RXFP3 [1]; relative to R3/I5
  fold lower binding potency for RXFP3 compared with R3/I5: ~ 3 fold
Human RXFP4 [2]
  fold lower binding potency towards RXFP4 compared with R3/I5: ~ 10 fold
Human RXFP3 [3]
  activation potency towards RXFP3, in words: lost all activation potency
Human RXFP4 [4]
  fold lower activation potency towards RXFP4 compared with R3/I5: ~ 1000 fold

## CC[C@H](C)[C@@H]1NC(=O)[C@H](Cc2ccccc2)NC(=O)[C@H](CCC(=O)O)NC(=O)[C@H](CCCNC(=N)N)NC(=O)CNC(=O)[C@@H](NC(=O)[C@H](CC(C)C)NC(=O)[C@H](CCCNC(=N)N)NC(=O)[C@@H](NC(=O)CNC(=O)[C@H](Cc2ccc(O)cc2)NC(=O)[C@@H]2CCCN2C(=O)[C@H](C)NC(=O)[C@H](C)NC(=O)[C@H](CCCNC(=N)N)NC(=O)[C@@H]2CCC(=O)N2)C(C)C)CSSC[C@@H]2NC(=O)[C@@H](NC(=O)[C@H](CC(C)C)NC(=O)[C@@H](NC(=O)[C@H](CCC(N)=O)NC(=O)[C@H](CC(C)C)NC(=O)[C@H](CC(=O)O)NC(=O)[C@H](CCC(N)=O)NC(=O)[C@H](CCCNC(=N)N)NC(=O)[C@H](CO)NC(=O)[C@H](CCCNC(=N)N)NC(=O)[C@H](CCCNC(=N)N)NC(=O)[C@H](CO)NC(=O)[C@@H](N)CCCNC(=N)N)[C@@H](C)O)CSSC[C@H](NC(=O)CNC(=O)[C@H](CC(=O)O)NC(=O)[C@H]([C@@H](C)O)NC2=O)C(=O)N[C@@H](CO)C(=O)N[C@@H](CCSC)C(=O)N[C@@H]([C@@H](C)O)C(=O)N[C@@H](CC(=O)O)C(=O)N[C@@H](CC(C)C)C(=O)N[C@@H](CO)C(=O)N[C@@H](C)C(=O)N[C@@H](CC(C)C)C(=O)N[C@H](C(=O)O)CSSC[C@@H](C(=O)N[C@@H](CCCNC(=N)N)C(=O)N[C@@H](Cc2c[nH]c3ccccc23)C(=O)O)NC(=O)[C@H]([C@@H](C)O)NC(=O)[C@H](Cc2ccccc2)NC(=O)[C@H]([C@@H](C)CC)NC(=O)[C@H](C(C)C)NC(=O)[C@H](C)NC(=O)[C@H](CCCNC(=N)N)NC1=O [[∆B23-25]R3/I5]
Human RXFP3 [1]
  binding potency towards RXFP3, in words: almost normal binding potency
Human RXFP4 [2]
  binding potency towards RXFP4, in words: almost normal binding potency
Human RXFP3 [3]
  fold lower activation potency towards RXFP3 compared with R3/I5: ~ 30 fold
Human RXFP4 [4]
  fold lower activation potency towards RXFP4 compared with R3/I5: ~ 30 fold

## CC[C@H](C)[C@@H]1NC(=O)[C@H](Cc2ccccc2)NC(=O)[C@H](CCC(=O)O)NC(=O)[C@H](CCCNC(=N)N)NC(=O)CNC(=O)[C@@H](NC(=O)[C@H](CC(C)C)NC(=O)[C@H](CCCNC(=N)N)NC(=O)[C@@H](NC(=O)CNC(=O)[C@H](Cc2ccc(O)cc2)NC(=O)[C@@H]2CCCN2C(=O)[C@H](C)NC(=O)[C@H](C)NC(=O)[C@H](CCCNC(=N)N)NC(=O)[C@@H]2CCC(=O)N2)C(C)C)CSSC[C@@H]2NC(=O)[C@@H](NC(=O)[C@H](CC(C)C)NC(=O)[C@@H](NC(=O)[C@H](CCC(N)=O)NC(=O)[C@H](CC(C)C)NC(=O)[C@H](CC(=O)O)NC(=O)[C@H](CCC(N)=O)NC(=O)[C@H](CCCNC(=N)N)NC(=O)[C@H](CO)NC(=O)[C@H](CCCNC(=N)N)NC(=O)[C@H](CCCNC(=N)N)NC(=O)[C@H](CO)NC(=O)[C@@H](N)CCCNC(=N)N)[C@@H](C)O)CSSC[C@H](NC(=O)CNC(=O)[C@H](CC(=O)O)NC(=O)[C@H]([C@@H](C)O)NC2=O)C(=O)N[C@@H](CO)C(=O)N[C@@H](CCSC)C(=O)N[C@@H]([C@@H](C)O)C(=O)N[C@@H](CC(=O)O)C(=O)N[C@@H](CC(C)C)C(=O)N[C@@H](CO)C(=O)N[C@@H](C)C(=O)N[C@@H](CC(C)C)C(=O)N[C@H](C(=O)O)CSSC[C@@H](C(=O)NCC(=O)N[C@@H](CO)C(=O)N[C@@H](CCCNC(=N)N)C(=O)N[C@@H](Cc2c[nH]c3ccccc23)C(=O)O)NC(=O)[C@H]([C@@H](C)O)NC(=O)[C@H](Cc2ccccc2)NC(=O)[C@H]([C@@H](C)CC)NC(=O)[C@H](C(C)C)NC(=O)[C@H](C)NC(=O)[C@H](CCCNC(=N)N)NC1=O [[∆B23]R3/I5]
Human RXFP3 [1]
  binding potency towards RXFP3, in words: retained considerable binding potency
Human RXFP4 [2]
  binding potency towards RXFP4, in words: retained considerable binding potency
Human RXFP3 [3]
  fold lower activation potency towards RXFP3 compared with R3/I5: ~ 300 fold
Human RXFP4 [4]
  fold lower activation potency towards RXFP4 compared with R3/I5: ~ 300 fold
